Earlier results, collected in patent US6472222B2, “Method of estimating rate of nicotine metabolism in individuals” (Via Christi Research, Inc., priority 1999, dated 2002).

Row | half-life (plasma) | Compound | half-life (biphasic elimination, second phase) (biphasic elimination, longer of two half-lives) [h] | half-life (biphasic elimination, first, short phase) (biphasic elimination, shorter of two half-lives)
1 | approximately 19 hours | CN1C(=O)CC[C@H]1c1cccnc1 [cotinine] |  | 
2 |  | CN1CCCC1c1cccnc1 (stereo not drawn) [nicotine] | ~2 | approximately 10 minutes
